Measurements: ChEMBL document CHEMBL1681652, “Synthesis and evaluation of 2-phenyl-1,4-butanediamine-based CCR5 antagonists for the treatment of HIV-1” (Bioorg Med Chem Lett, 2011)
Values belong to the compound of their own block, whether it stands above or below them.

Legend:
[1] = system: Human immunodeficiency virus 1; test: Antiviral activity against HIV1 Ba-L infected in human HOS cells expressing CCR5 after 4 days; format: functional, organism-based
[2] = biological target: Voltage-gated inwardly rectifying potassium channel KCNH2 (Homo sapiens, UniProt Q12809); test: Displacement of labeled dofetilide from human ERG
[3] = Oral bioavailability in Sprague-Dawley rat at 1 mg/kg; format: ADME, organism-based; details: in vivo
[4] = Half life in human hepatocytes; format: ADME, cell-based, Liver, Hepatocyte
Rattus norvegicus = test: AUC in Sprague-Dawley rat at 1 mg/kg, iv and po; format: ADME, organism-based, Plasma; set-up: dose 1 mg/kg, route oral; unit not given here; details: in vivo
[5] = Half life in rat hepatocytes; format: ADME, cell-based, Liver, Hepatocyte
[6] = system: Human immunodeficiency virus 1; test: Antiviral activity against HIV1 Ba-L infected in human PBL cells assessed as reverse transcriptase activity after 7 days; format: functional, organism-based; details: Human immunodeficiency virus 1, Ba-L, 168 h
[7] = Apparent permeability across MDCK cells; format: ADME, cell-based, Canis lupus familiaris; details: dog
[8] = Human immunodeficiency virus 1, Ba-L, HOS, 96 h

Chain of Voltage-gated inwardly rectifying potassium channel KCNH2 (Q12809 whole entry): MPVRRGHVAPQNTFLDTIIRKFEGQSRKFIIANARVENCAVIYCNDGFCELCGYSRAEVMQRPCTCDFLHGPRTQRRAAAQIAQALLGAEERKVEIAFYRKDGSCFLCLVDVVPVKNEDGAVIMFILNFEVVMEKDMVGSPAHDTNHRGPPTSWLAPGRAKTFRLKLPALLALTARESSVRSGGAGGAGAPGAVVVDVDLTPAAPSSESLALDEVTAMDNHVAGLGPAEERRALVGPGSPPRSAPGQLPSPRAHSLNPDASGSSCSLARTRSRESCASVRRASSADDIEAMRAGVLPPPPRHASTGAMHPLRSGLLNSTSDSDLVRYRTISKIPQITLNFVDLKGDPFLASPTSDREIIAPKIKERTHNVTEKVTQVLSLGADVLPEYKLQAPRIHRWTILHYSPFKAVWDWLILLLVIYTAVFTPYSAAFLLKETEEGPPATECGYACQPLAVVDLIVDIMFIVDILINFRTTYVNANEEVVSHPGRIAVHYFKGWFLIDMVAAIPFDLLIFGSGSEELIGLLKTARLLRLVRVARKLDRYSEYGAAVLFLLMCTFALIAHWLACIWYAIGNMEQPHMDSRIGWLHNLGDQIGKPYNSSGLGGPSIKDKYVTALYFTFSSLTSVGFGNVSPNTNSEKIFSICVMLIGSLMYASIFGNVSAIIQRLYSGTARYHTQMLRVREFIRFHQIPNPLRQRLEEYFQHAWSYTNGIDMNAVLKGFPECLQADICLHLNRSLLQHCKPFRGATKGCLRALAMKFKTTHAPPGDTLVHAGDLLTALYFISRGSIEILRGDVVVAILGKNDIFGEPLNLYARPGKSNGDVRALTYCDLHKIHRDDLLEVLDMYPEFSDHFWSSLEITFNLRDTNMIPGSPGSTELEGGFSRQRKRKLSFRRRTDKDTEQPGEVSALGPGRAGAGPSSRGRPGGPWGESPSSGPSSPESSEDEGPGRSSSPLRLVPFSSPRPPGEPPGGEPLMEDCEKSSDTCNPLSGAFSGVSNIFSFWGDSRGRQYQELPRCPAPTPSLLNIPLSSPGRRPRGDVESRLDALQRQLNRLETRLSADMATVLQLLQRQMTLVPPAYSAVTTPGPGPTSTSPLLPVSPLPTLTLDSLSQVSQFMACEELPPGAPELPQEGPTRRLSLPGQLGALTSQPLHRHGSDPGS

IC50 [1, 8]: 989 nM
Compound: Cc1nnc(C(C)C)n1C1CCN(CCC(CNS(=O)(=O)c2ccccc2)c2ccccc2)CC1 (racemic)

Compound: Cc1nnc(C(C)C)n1[C@H]1C[C@H]2CC[C@@H](C1)N2CCC(CNS(=O)(=O)c1ccccc1)c1ccccc1 (racemic; 14b)
IC50 ([1]; hos): 146 nM

Compound: Cc1nnc(C(C)C)n1[C@H]1C[C@H]2CC[C@@H](C1)N2CCC(CNC(=O)c1ccccc1)c1ccccc1 (mixture of isomers)
IC50 [2]: ≥ 10 µM
IC50 [1, 8]: > 20000 nM

Compound: CC(=O)N1CCc2nc(C)n([C@H]3C[C@H]4CC[C@@H](C3)N4CCC(CNS(=O)(=O)c3ccccc3)c3ccccc3)c2C1 (mixture of isomers)
bioavailability [3]: < 1%
half-life [4]: ≤ 20 min
AUC (Rattus norvegicus): 0
half-life [5]: ≤ 20 min
IC50 [1, 8]: 3 nM
IC50 [6]: 1 nM

Compound: Cc1nc2ccccc2n1[C@H]1C[C@H]2CC[C@@H](C1)N2CCC(C)(CNS(=O)(=O)c1ccccc1)c1ccccc1 (mixture of isomers)
IC50 [1, 8]: 124 nM

IC50 [1, 8]: 5020 nM
Compound: Cc1nnc(-c2ccccc2)n1C1CCN(CCC(CNS(=O)(=O)c2ccccc2)c2ccccc2)CC1 (racemic)

Compound: Cc1nc2ccccc2n1C1CC2CCC(C1)N2CCC(CNS(=O)(=O)c1ccccc1)c1ccccc1 (racemic)
IC50 [1, 8]: 65 nM
IC50 [6]: 112 nM

Compound: Cc1nc2ccccc2n1[C@@H]1C[C@H]2CC[C@@H](C1)N2CCC(CNS(=O)(=O)c1ccccc1)c1ccccc1 (mixture of isomers)
IC50 [1, 8]: 117 nM

Compound: Cc1nc2ccccc2n1C1CC2CCC(C1)N2CCC(CNS(C)(=O)=O)c1ccccc1 (racemic)
IC50 [1, 8]: 23 nM
IC50 [6]: 99 nM

bioavailability [3]: 2%
half-life [4]: ≤ 20 min
AUC (Rattus norvegicus): 10
half-life [5]: ≤ 20 min
IC50 [1, 8]: 8 nM
IC50 [6]: 1 nM
Compound: Cc1cc(OS(=O)(=O)c2ccccc2)cc(C)c1C(=O)N1C[C@H]2CN(CCC(CNS(=O)(=O)c3ccccc3)c3ccccc3)C[C@H]2C1 (mixture of isomers)

Compound: Cc1nc2ccccc2n1C1CC2CCC(C1)N2CCC(CNS(=O)(=O)c1cccc(C(N)=O)c1)c1ccccc1 (racemic)
IC50 [1, 8]: 16 nM
IC50 [6]: 161 nM

Compound: COP(=O)(NCC(CCN1C2CCC1CC(n1c(C)nc3ccccc31)C2)c1ccccc1)OC (racemic)
IC50 [1, 8]: 77 nM

IC50 [1, 8]: 45 nM
IC50 [6]: 43 nM
Compound: CCc1nc(Cc2ccccc2)cn1C1CCN(CCC(CNS(=O)(=O)c2ccccc2)c2ccccc2)CC1 (racemic)

Compound: Cc1nnc(C(C)C)n1[C@@H]1C[C@H]2CC[C@@H](C1)N2CCC(C)(CNC(=O)C1CCC(F)(F)CC1)c1ccccc1 (mixture of isomers)
IC50 [1, 8]: 583 nM

Compound: Cc1nnc(C(C)C)n1[C@H]1C[C@H]2CC[C@@H](C1)N2CCC(CNC(=O)C1CC(F)(F)C1)c1ccccc1 (mixture of isomers)
IC50 [1, 8]: > 20000 nM

IC50 [1, 8]: 88 nM
Compound: Cn1nc(Cc2ccccc2)cc1C1CCN(CCC(CNS(=O)(=O)c2ccccc2)c2ccccc2)CC1 (racemic)

Compound: Cc1nnc(C(C)C)n1[C@H]1C[C@H]2CC[C@@H](C1)N2CCC(CNS(=O)(=O)c1ccccc1)c1ccccc1 (racemic; 14a)
IC50 [2]: ≥ 10 µM
IC50 ([1]; hos): 480 nM

Compound: Cc1nnc(C(C)C)n1[C@H]1C[C@H]2CC[C@@H](C1)N2CCC(CNC(=O)C1CCC(F)(F)CC1)c1ccccc1 (mixture of isomers) [listing 1 of 2 here]
IC50 [2]: ≥ 10 µM
IC50 ([1]; hos): 866 nM

Compound: Cc1nc2ccccc2n1[C@H]1C[C@H]2CC[C@@H](C1)N2CCC(C)(CNC(=O)C1CCC(F)(F)CC1)c1ccccc1 (mixture of isomers)
IC50 [1, 8]: 249 nM

Compound: Cc1nc2ccccc2n1C1CC2CCC(C1)N2CCC(CN(C)S(=O)(=O)c1ccccc1)c1ccccc1 (racemic)
bioavailability [3]: 5%
half-life [4]: ≤ 20 min
AUC (Rattus norvegicus): 40
half-life [5]: ≤ 20 min
IC50 [1, 8]: 8 nM
IC50 [6]: 60 nM

Compound: CC(=O)NCC(CCN1C2CCC1CC(n1c(C)nc3ccccc31)C2)c1ccccc1 (racemic)
IC50 [1, 8]: 866 nM

Compound: Cc1nc2ccncc2n1[C@H]1C[C@H]2CC[C@@H](C1)N2CCC(CNS(=O)(=O)c1ccccc1)c1ccccc1 (mixture of isomers)
IC50 [1, 8]: 38 nM

Compound: Cc1nc2ccccc2n1C1CC2CCC(C1)N2CCC(CN(C)C(=O)C1CCC(F)(F)CC1)c1ccccc1 (racemic)
IC50 [1, 8]: 520 nM

Compound: Cc1nc2ccccc2n1[C@H]1C[C@H]2CC[C@@H](C1)N2CCC(C)(CN(C)S(=O)(=O)c1ccccc1)c1ccccc1 (mixture of isomers)
bioavailability [3]: < 1%
half-life [4]: ≤ 20 min
AUC (Rattus norvegicus): 0
half-life [5]: ≤ 20 min
IC50 [1, 8]: 9 nM
Papp [7]: 7 ×10⁻⁶ cm/s
IC50 [6]: 1 nM

IC50 [1, 8]: 362 nM
Compound: Cc1nc2ccccc2n1C1CCN(CCC(CNS(=O)(=O)c2ccccc2)c2ccccc2)CC1 (racemic)

Compound: Cc1nc2ccccc2n1C1CC2CCC(C1)N2CCC(CNC(=O)C1CCC(F)(F)CC1)c1ccccc1 (racemic)
IC50 [1, 8]: 411 nM

Compound: Cc1nc2ccccc2n1[C@H]1C[C@H]2CC[C@@H](C1)N2CCC(C)(CN(C)C(=O)C1CCC(F)(F)CC1)c1ccccc1 (mixture of isomers)
IC50 [1, 8]: 235 nM

Compound: Cc1nc2ccccc2n1C1CC2CCC(C1)N2CCC(CNS(=O)(=O)N1CCOCC1)c1ccccc1 (racemic)
IC50 [1, 8]: 13 nM

Compound: Cc1nnc(C(C)C)n1[C@H]1C[C@H]2CC[C@@H](C1)N2CCC(CNC(=O)C1CCC(F)(F)CC1)c1ccccc1 (mixture of isomers) [listing 2 of 2 here]
IC50 ([1]; hos): 9740 nM

Compound: Cc1nnc(C(C)C)n1[C@@H]1C[C@H]2CC[C@@H](C1)N2CCC(C)(CNS(=O)(=O)c1ccccc1)c1ccccc1 (mixture of isomers)
IC50 [1, 8]: 578 nM
